The source of these data is publication PMC6015222, “Targeting Phosphopeptide Recognition by the Human BRCA1 Tandem BRCT Domain to Interrupt BRCA1-Dependent Signaling” (Cell Chemical Biology, 2018).

Data set [1] deals with T1, BRCA1 tBRCT (Homo sapiens, UniProt P38398).
T1 construct: BRCA1 tBRCT residues 1646-1859; made in house; host or cells: E. coli BL21(DE3)
In words: AlphaScreen assay: displacement of cognate biotinylated phosphopeptide from BRCA1 tBRCT. The note with it: 10-point dose response, read-out: IC50, inhibition of binding of cognate phosphopeptide to BRCA1 tBRCT. How it is done: We tested 6x-Histidine-tagged BRCA1 tBRCT, TOPBP1 tBRCT 7/8 or GRB2 SH2, and their cognate biotinylated peptide substrates. Initial checkerboard titrations were carried out to determine the optimal concentration of protein and peptide for each screen. Assays were conducted in Costar 96-well flat bottom white polystyrene plates using assay buffer (20mM Tris buffer pH 7.4, 200mM NaCl, 0.05% Tween-20, 2mM DTT). 5x-working concentrations of the reagents were dispensed in 10μl each in the order: 6x-Histidine tagged protein, biotinylated peptide, test compound. Plates were incubated at room temperature for 20 min and 10 μl each of nickel chelate AlphaLISA® acceptor beads and AlphaScreen® Streptavidin donor beads (both from Perkin Elmer) at a final concentration of 20 μg/ml were added. Plates were covered with adhesive seals and incubated in the dark for 1 h at 25°C. The AlphaScreen® signal was read using TECAN infinite M1000 Pro microplate reader at excitation wavelength 680nm and emission wavelength 520-620nm. 1% DMSO controls were run in parallel, and used to calculate percent inhibition. A 10-point dose response was performed in triplicate to determine IC50 values for each compound.
On the technique in general: In Alpha technology, singlet oxygen from a donor bead excites a nearby acceptor bead.

Data set [2] in a line: Solubility in aqueous buffers. In kind it is physicochemical.
The target of data set [3] is T1, BRCA1 tBRCT. As to the kind of experiment: Competitive MST: inhibition of BACH1 phosphopeptide binding to BRCA1 tBRCT. The note with it: for activity in competitive MST, in words / IC50: BACH1 phosphopeptide vs BRCA1 tBRCT; for IC50: MST, mean ± SD of three experiments, NB, no binding. How it is done:
Protein domains used in the assay were labeled with NT-647-NHS fluorescent dye using the Monolith NT™ Protein Labeling Kit (NanoTemper Technologies). Assays were carried out in 20mM Tris buffer, pH 7.4, with 200mM NaCl, 0.05% Tween-20 and 2mM DTT. For the direct binding assay, 10μl of labeled protein at a final concentration of 20nM was mixed with 10μl of test compound and incubated on ice for 10 min. For the competitive assay, 10μl of labeled protein at a final concentration of 20nM was mixed with 2μM cognate peptide substrate at the EC80 concentration determined by prior titration using a 16-point serial dilution by direct-binding MST. For both assays, samples prepared as above were centrifuged at 15000 rpm at 4°C for 10 min and 4μl of the supernatant was loaded into premium glass capillaries (NanoTemper Technologies). MST analysis was performed at MST power of 40% and LED power of 80%, at 22°C temperature using a Monolith NT.115 (NanoTemper Technologies). An initial “Capillary Scan” was performed to scan for fluorescence across the length of the capillary tray to determine the exact position of each capillary before the MST measurement was started. Test compounds were assayed at 16 different concentrations by serial dilution, and data were analysed using NanoTemper analysis software. Kd values were determined using “T-jump + Thermophoresis” settings. The change in thermophoresis between different experimental conditions was expressed as the change in the normalized fluorescence (ΔFnorm), which is defined as Fhot/Fcold (F-values correspond to average fluorescence values between defined areas in the curve under steady-state conditions under control (Fcold) or experimental (Fhot) conditions. Titration of the non-fluorescent ligand causes a gradual change in thermophoresis, which is plotted as ΔFnorm to yield a binding curve, which was then fitted to derive binding constants.

The test system of data set [4] is BRCT domain of poly-ADP ribose polymerase. Further details: method as in Na et al., 2015. The settings on record: ref Na et al., 2015; cited from earlier work.
For data set [5], the target named is T2, human BRCA1 tandem BRCT domain (residues 1646-1859) (human, UniProt P38398-1 1646-1859, NT-647-NHS fluorescent dye (in the MST assays only)).
T2 construct: BRCA1, human, tandem BRCT domain, residues 1646-1859; Synthetic gene in pET28a, codon optimised for E. coli; No removal of the His tag is described; also called BRCA1 tBRCT; 6x His-BRCA1 tBRCT; source: E. coli BL21(DE3), purified (HisTrap HP, Superdex-75 gel filtration); not shown: His6, N-terminal, kept
As to the kind of experiment: fluorescence polarisation; 75 nM BRCA1 tBRCT and 10 nM TAMRA-labelled BACH1 peptide, with compound at 125 uM; 20 mM Tris pH 7.4, 200 mM NaCl, 0.05% Tween-20, 2 mM DTT; room temperature. The settings on record: both partners purified.

“And” between values parts separate entries of the source, which are not always exact repeats. Equal entries are not always repeated. Non-standard residues stand in square brackets, D forms with d. TAMRA = tetramethylrhodamine label; pS = N[C@@H](COP(=O)(O)O)C(=O)O Some results are limits rather than exact numbers.

T1 sequence (P38398 1646-1859): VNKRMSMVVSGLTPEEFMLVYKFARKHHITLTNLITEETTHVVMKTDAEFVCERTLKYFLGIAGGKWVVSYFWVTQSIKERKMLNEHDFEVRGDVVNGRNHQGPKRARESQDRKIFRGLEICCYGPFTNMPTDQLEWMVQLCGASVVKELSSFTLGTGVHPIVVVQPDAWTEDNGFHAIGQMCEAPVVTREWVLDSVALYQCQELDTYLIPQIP
T2 sequence (P38398 1646-1859): as above

`Cc1nc2cc(C(=O)N3CCN(Cc4ccccc4F)CC3C(C)C)ccc2[nH]1` (stereo not drawn) [CCBT002, (4-(2-fluorobenzyl)-2-isopropylpiperazin-1-yl) (2-methyl-1H-benzo[d]imidazol-5-yl)methanone]: on BRCA1 tBRCT [1], the IC50 – broadly, the midpoint of a concentration-inhibition curve – worked out at 47.3 µM. Besides, the “solubility in aqueous buffers” value in data set [2] is on record as “limited solubility”.
As to `CC(C)c1nc2ccc(C(=O)N3CCN(Cc4ccccc4F)CC3)cc2[nH]1` [CCBT2009, (4-(2-fluorobenzyl)piperazin-1-yl) (2-isopropyl-1H-benzo[d]imidazol-6-yl) methanone], on BRCA1 tBRCT [3], the “activity in competitive MST, in words” value is recorded as “abrogated activity”.
Same read-out and setting: the same measure for `CC(C)CN1CCN(C(=O)c2ccc3[nH]c(-c4ccccc4)nc3c2)CC1` [CCBT2047, (4-isobutylpiperazin-1-yl)(2-phenyl-1H-benzo[d]imidazol-5-yl) methanone]: “abolishes activity”.
Take `O=C(c1ccc2[nH]c(-c3ccncc3)nc2c1)N1CCN(Cc2ccccc2F)CC1` [CCBT2082, (4-(2-fluorobenzyl)piperazin-1-yl)(2-(pyridin-4-yl)-1H-benzo[d]imidazol-5-yl)methanone]: at BRCA1 tBRCT [3], the IC50 turned out to be 0.315 ± 0.18 µM. For the same molecule, the “decrease in activity relative to Bractoppin” value at BRCA1 tBRCT [3] (competitive MST) was 5 fold.
As for `O=C(c1ccc2[nH]c(N3CCOCC3)nc2c1)N1CCN(Cc2ccccc2F)CC1` [CCBT2084, (4-(2-fluorobenzyl)piperazin-1-yl)(2-morpholino-1H-benzo[d]imidazol-5-yl) methanone], on BRCA1 tBRCT [3], the “activity in competitive MST, in words” value is given as “abrogated activity”.
Turning to `O=C(c1ccc2nc(-c3ccccc3)[nH]c2c1)N1CCN(Cc2ccc(O)cc2)CC1` [CCBT2106, (4-(4-hydroxybenzyl)piperazin-1-yl)(2-phenyl-1H-benzo[d]imidazole-6-yl)methanone], the IC50 at BRCA1 tBRCT [3] amounted to 3.6 µM.
Consider `Cc1ccc(CN2CCN(C(=O)c3ccc4nc(-c5ccccc5)[nH]c4c3)CC2)cc1` [CCBT2107, (4-(4-methylbenzyl)piperazin-1-yl)(2-phenyl-1H-benzo[d]imidazol-6-yl)methanone], for which, on BRCA1 tBRCT [3], the IC50 worked out at 0.3 µM.
In turn, `Cc1nc2cc(C(=O)N3CCN(Cc4ccccc4F)C[C@H]3C(C)C)ccc2[nH]1` [CCBT2905, (R)-(4-(2-fluorobenzyl)-2-isopropylpiperazin-1-yl)(2-methyl-1H-benzo[d]imidazol-5-yl)methanone] yielded an IC50 at BRCA1 tBRCT [3] of 56 µM.
Still for that read-out and setting: the same measure for `Cc1nc2cc(C(=O)N3CCN(Cc4ccccc4F)C[C@@H]3C(C)C)ccc2[nH]1` [CCBT2906]: 1.7 µM.
Take `Cc1nc2cc(C(=O)N3CCN(Cc4ccccc4F)CC3)ccc2[nH]1` [CCBT2907, (4-(2-fluorobenzyl)piperazin-1-yl)(2-methyl-1H-benzo[d]imidazol-5-yl)methanone]: the IC50 on BRCA1 tBRCT [3] was > 53 µM and ~53 µM.
For `Cc1nc2cc(CN3CCN(Cc4ccccc4F)CC3)ccc2[nH]1` [CCBT2908, 5-((4-(2-fluorobenzyl)piperazin-1-yl)methyl)-2-methyl-1H-benzo[d]imidazole], on BRCA1 tBRCT [3], the “activity in competitive MST, in words” value is “inactive”.
For `Cc1cc2c(C(C)C)c(O)c(O)c(C=O)c2c(O)c1-c1c(C)cc2c(C(C)C)c(O)c(O)c(C=O)c2c1O` [Gossypol], in data set [4], the “binding to the BRCT domain of poly-ADP ribose polymerase” value is “reported to bind”.

B1: TAMRA-labelled phosphopeptide from BACH1 (TAMRA_GGSRSTpSPTFNK-NH2) (peptide)
peptide: {TAMRA}-GGSRST[pS]PTFNK-NH2
notes: two added glycines before the BACH1 stretch; stretch around the Ser990 phosphosite; the helicase BRIP1 is meant; also called TAMRA-labeled BACH1 peptide; source: synthetic peptide, bought: Designer Bioscience
On to B1, for which the binding result in data set [5] is given as “binds”.
